# Test results from patent publication US8273372B2, “Extracellular matrix composition” (Restoration of Appearance & Function Trust, priority 2006, dated 2012).
# Read-outs that look alike come from different tables or passages of the source.
# What was measured:
# [1] = tested on: HPMEC; assay: Cell adhesion assay on cross-linked matrix protein coatings (crystal violet); type: cell-based, human; settings: coating cross-linked with glutaraldehyde or EDC dilution range, 1 hr adhesion; FIG. 5
# Procedure: HPMEC were isolated from human placentae obtained with consent and cultured according to previously published methods (Leach et al. (1994) Placenta 15(4): 355-64; Dye et al. (2001) Microvasc Res 62(2): 94-113; Dye et al. (2004) Faseb J 18(1): 125-7). Established cultures are phenotypically stable for typically up to 25 passages at a split ratio of 1:3. Cultures are maintained in standard growth medium (M199+5% PDPDS+2% HIFBS). Cultures were maintained in a humidified 5% CO2 and 37° C. atmosphere. For biocompatibility assessment of scaffolds, harvested cells were resuspended in high growth medium (M199+5% HIBFS). For cell adhesion assays harvested cells were resuspended in M199+0.5% BSA. […]
# The well was washed with a sufficient number of washes to reduce residual concentration to below cytotoxic limits (5×100 μl per well) with PBS, replaced with 50 μl/well BSA/NaHCO3 (covalent reagent blocking step) and incubated for 1 hr at 37° C. Washing was performed twice with sterile PBS and the plate was stored with 100 μl/well PBS until the cells were ready.
# Accutase was thawed and M199/BSA was prepared. […] The supernatant was aspirated and the cells were resuspended in 1-2 ml M199/BSA as appropriate, titurated, and cell density was counted (1:10 in 4% trypan blue/PBS), aiming for around 2×10^6/ml.
# The number of cells required for the assay was calculated using 1-2×10^4 cells/well. […]
# [2] = tested on: human dermal fibroblast cultures; assay: Toxicity assay, MTS/PMS assay of cell viability; type: cell-based
# Procedure: Culture medium was aspirated from confluent culture and washed with versene. […] Trypsin was neutralised with an equal volume of growth medium, the cell suspension was transferred to a universal tube. The culture flask was washed with PBS and transferred to the universal tube. Centrifugation was performed at 200×g for 7 minutes. Cells were resuspended in 1-2 ml growth medium.
# Cells were seeded (10^5/well) into 24-well plates in 0.5 ml DMEM growth medium/well and incubated at 37° C. in a humidified 5% CO2 incubator, until the cells adhered and spread, typically overnight. A single well blank/plate was retained for a reagent control.
# Culture medium was aspirated from cultures and replaced with: a weighed sample of scaffold (20 mg/well) in fresh serum-free DMEM; serum-free DMEM with a range of dilutions of glutaraldehyde or EDC as cross-linking agents. Cells were incubated at 37° C. in humidified 5% CO2 for 1 hr.
# The medium and scaffold material was removed from cells and replaced with fresh maintenance medium (DMEM with 2% HIFBS) and returned to the incubator for 2 to 22 hours. Direct toxicity measurements were taken at 2, 14 and 20 hours. For exposure to matrices, incubation was for 20 hrs. The same medium was added to an empty control well for a reagent blank.
# Aliquots of MTS & PMS stock solutions were thawed and a working MTS/PMS reagent was prepared (2 ml MTS+100 μl PMS). MTS/PMS reagent was added to all wells (50 μl/well) and returned to the incubator for 2-4 hours, until colour developed in the medium over control cultures without toxic challenge.
# 100 μl aliquots of medium were transferred to a 96 well ELISA plate for spectrophotometric measurement at 495 nm.
# Matrices of 1% fibrin/1% alginate, foamed & lyophilised, were cross-linked with EDC or glutaraldehyde and washed 5 times in glycine or PBS before a second lyophilisation, or not, as indicated. […] pieces of matrix were incubated in wells with confluent fibroblast cultures in serum-free medium for 1 hr to detect leachable toxicity, assessed after 20 hr to check for induction of delayed cell death.
# [3] = tested on: human dermal fibroblasts; assay: MTS assay, effect on proliferation over 3 days; type: cell-based; settings: FIGS. 30 and 31
# Procedure: (§1) The MTS assay was used as described hereinbefore with certain modifications.
# (§2) Firstly, two modalities were used, (i) acute cytotoxicity and (ii) effect on proliferation over 3 days.
# (§3) On day −1, human dermal fibroblasts were seeded for (i) at high density (5×10^5/well) and for (ii) at low density (2.5×10^4/well).
# (§4) On day 0, cultures were washed in PBS/g and exposed to the test agent diluted into PBS/g unless otherwise stated, for a test period (1-4 hr). Then the test agent was removed and culture medium replaced. For (i), cells were returned to maintenance medium (2% FBS/DMEM) followed by MTS/PMS reagent for two hours. For (ii), cells were returned to growth medium (10% FBS/DMEC) for three days. After this period, the growth medium was aspirated and replaced with maintenance medium (2% FBS/DMEM) followed by MTS/PMS reagent for two hours.
# (§5) MTS colour change at 2 hours was measured as described hereinbefore.
# (§6) Test agents were GTA and soaked scaffold supernatants (a), fibrinogen and fragment E Schiff base hydrolysate (b) and (c) and alginate (d).
# [4] = tested on: neutrophil CD18; assay: Human neutrophil activation assay (CD18, FACS); type: cell-based; settings: 1 hour at 37° C., FIGS. 36 and 37, read-out: ED50 neutrophil CD18 activation
# Procedure: Dextran 70 and ACD were warmed to 37° C. in a water bath. 2.5 ml ACD was drawn into a 20 ml syringe. 10-15 ml of blood was drawn from a volunteer into the same syringe and inverted several times to mix. The needle was changed and 6-7 ml of Dextran 70 was drawn. Some air was drawn into the top of the syringe and mixed thoroughly by inverting the syringe several times. The syringe was turned upright, taped to the inside of a 37° C. water bath and left for approximately 1.5 hours to allow for erythrocytes to sediment, leaving a leukocyte-rich plasma upper layer.
# The syringe was carefully removed from the water bath keeping upright and the top of the needle was bent through about 120°. A 15 ml polypropylene tube was placed under the tip of the needle and approximately half of the plasma was slowly removed (containing the leukocytes). The remainder of the plasma was removed into a second tube leaving the red blood cells in the syringe to be discarded. Each of the 15 ml tubes was topped up with PBS/g and inverted to mix.
# The tubes were centrifuged at 1000 rpm for 10 minutes. The supernatant was removed using a 1 ml plastic pipette and the pellet was loosened. If the supernatant appeared cloudy then a check was performed under the microscope for remaining cells and centrifuged again if necessary. When the supernatant was clear it was discarded. […]
# [5] = tested on: human dermal fibroblasts; assay: MTS assay, acute cytotoxicity; type: cell-based; settings: FIGS. 30 and 31
# Procedure: as §1, §2, §3, §4, §5, §6
molecule,measurement,setting,value
fibrinogen,effect of cross-linking on cell adhesion,[1],continuously increases adhesion
"CCN=C=NCCCN(C)C.Cl [EDC, 1-(3-Dimethylamino-propyl)-3-ethyl-carbodiimide (EDC) HCl]",LD50 for cells relative to the lowest cross-linking concentration used,[2],"5,000-10,000 times less"
same,toxicity (loss of cell viability),"[2]; 1 hr exposure, measured at 2, 14 and 20 hours, FIGS. 6-7",acute concentration-dependent toxicity
O=CCCCC=O [glutaraldehyde],LD50 for proliferation,[3],around 7 μM
same,EC50,[4],150 to 500 µM
same,acute LD50 on HDF cytotoxicity,[5],50 to 150 µM
same,LD50 for cells relative to the lowest cross-linking concentration used,[2],5-10 times less
same,toxicity (loss of cell viability),[2],acute concentration-dependent toxicity
collagen,effect of cross-linking on cell adhesion,[1],biphasic effect
